According to PMC10482825 (Scientific Reports, 2023):
Converted amounts (≈) assume the structure as drawn. “And” between values parts separate entries of the source, which are not always exact repeats. Identical values can stand only once. Where a SMILES comes first, the peptide text is derived from it.

Tests used:
[1] = test system: B. subtilis; format: cell-based, Bacillus subtilis (ATCC, 11774); conditions: 20 µl of wells without growth on agar, 18 h, 37 °C
[2] = test system: S. enterica mature biofilm; assay: Antibiofilm microtiter plate assay (mature biofilm, crystal violet); format: cell-based, Salmonella enterica (ATCC, 14028); conditions: for Minimal biofilm eradication concentration (MBEC) S. enterica: tested 12.5-200 µM
Experimental: The antibiofilm activities of the selected cryptides against S. enterica and MRSA mature biofilms were examined by microtiter plate assay as previously described, with slight modification. During the mid-logarithmic phase, S. enterica and MRSA were suspended at the density of 1.7 × 10^8 CFU/ml in MHB. Then 100 µl of each bacterial suspension was dispensed into a vinyl 96 U-shaped-well plate and incubated overnight at 37 °C. The mature biofilms were washed with 10 mM Tris–HCl containing 5 mM D-glucose at pH 7.4 and treated for 8 h with 100 µl of two-fold serially diluted cryptides, under the same incubation conditions. A sterile MHB medium was used as the positive control while an equivalent volume of acidified water was used to treat the negative controls. The treated biofilms were washed twice with the same washing buffer and stained with 0.1% crystal violet for 15 min followed by rinsing with sterile distilled water twice and then dried for 30 min at 37 °C. The stain was dissolved with 33% acetic acid and transferred to an optically clear 96-well flat bottom plate which was then measured at 600 nm.
Table S.4 Antibiofilm activities of the selected Cryptides against S. enterica and MRSA. Microbial cells were suspended at 1.7 X 10^8 CFU/ml density, during the mid-logarithmic phase in MHB. Then, 96 U-shaped -well plates were inoculated with 100 µl of microbial suspension and incubated for 48 h at 37 °C. The formed biofilms were washed with 10 mM Tris-HCl and treated with 100 µl of different concentrations of each peptide for 24 h. The treated biomasses were washed and fixed with methanol for 15 min at -20 °C before staining with 0.1 % crystal violet. The stained biofilms were dissolved in 100 µl of 33 % acetic acid and the quantities of crystal violet stains were determined by measuring absorbance at 600 nm as an indicator of the remaining biomass after treatment. Untreated cells were used as negative control [indicating 100 % biofilm integrity] while the sterile medium was used as a positive control [indicating 0 % biofilm integrity].
S. enterica MRSA S. enterica MRSA S. enterica MRSA S. enterica MRSA S. enterica MRSA

[3] = test system: P. aeruginosa; format: cell-based, Pseudomonas aeruginosa (ATCC, 10145); conditions: 20 µl of wells without growth on agar, 18 h, 37 °C
[4] = test system: C. albicans; format: cell-based, Candida albicans (TIMM, 1768); conditions: micro-broth dilution, 3 h peptide treatment then MHB 18 h, 37 °C, OD 600 nm
Excerpt: (§1) The microbial strains used in this study were Bacillus subtilis (ATCC, 11774), Candida albicans (TIMM, 1768), Enterococcus faecalis (ATCC, 33186), Escherichia coli (ATCC, 11775), Klebsiella pneumoniae (ATCC, 13883), Methicillin-resistant Staphylococcus aureus (ATCC, BAA-41), Pseudomonas aeruginosa (ATCC, 10145), Salmonella enterica (ATCC, 14028), Serratia marcescens (ATCC, 13880), Staphylococcus aureus (ATCC, 25923) and Vibrio parahaemolyticus (ATCC, 17802). All microbial strains were cultivated overnight at 37 °C and 200 rpm, then subcultured and incubated for 3 h under the same incubation conditions to obtain the mid-logarithmic growth phase. The cultivated cells were washed twice with 10 mM Tris–HCl containing 5 mM D-glucose at pH 7.4 and suspended in the same buffer to be used in different assays, as previously described.
(§2) As a conclusive quantitative assessment, broth microtiter assay was used to determine the MIC values of each cryptide against B. subtilis, MRSA, S. enterica, P. aeruginosa, V. parahaemolyticus and C. albicans by following the guidelines of the Clinical and Laboratory Standards Institute (CLSI)[67], with slight modifications. Eighty microliters of 5 × 10^4 CFU/ml of each pathogen were dispensed into a 96-well polypropylene microtiter plate. The wells were then treated with 20 µl of serially diluted cryptides for 3 h at 37 °C. Gentamicin was used for positive controls at 0.2 mg/ml while an equivalent volume of acidified water was used for negative controls. The plates were then topped up with a final concentration of 1 × Mueller Hinton Broth (MHB) and incubated for 18 h under the same incubation conditions. MIC was detected as the lowest concentration of each cryptide that prevents the optically detectable microbial growth at OD = 600 nm.

[5] = test system: C. albicans; format: cell-based, Candida albicans (TIMM, 1768); conditions: 20 µl of wells without growth on Sabouraud 4% Dextrose Agar, 18 h, 37 °C
[6] = test system: HeLa; format: cell-based, human; conditions: 24 h, serum-free medium, MTT, 37 °C, 5% CO2; mean ± SD
Experimental: (§3) The used mammalian cell lines in our study were colorectal adenocarcinoma (Caco2, ATCC-HTB-37), colorectal carcinoma (HCT 116, ATCC-CCL-247), lung carcinoma (A549, ATCC- CCL-185), cervical cancer cells (HeLa, ATCC-CCL-2), neuroblastoma (SH-SY5Y, ATCC- CRL-2266), rhabdomyosarcoma (RD, ATCC- CCL-136) and human embryonic kidney cells (HEK 293, ATCC- CRL-1573). All the cells were maintained into Dulbecco’s Modified Eagle’s Medium (DMEM) supplemented with 10% heat-inactivated fetal bovine serum, 2 mM L-Glutamine, 100 U/ml penicillin–streptomycin (Pen/Strep) at 37 °C in 5% CO2 humidified incubator.
(§4) First, the cytotoxic effect of 24 h serum deprivation on all the selected cell lines was evaluated by MTT assay, following standard protocols. Briefly, cells were seeded and maintained at 37 °C and 5% CO2 in 24-well plates until they reached 75–80% confluency (zero time). Following washing twice with 1X PBS, cells were incubated in a serum-free medium for 24 h, under the same incubation conditions. The cell viability percentages were calculated and compared to zero time as 100% viability to nullify any possible effects of serum deprivation. Thence, the cell viability percentage of each cell line in response to 24 h treatment with different concentrations of each cryptide in serum-free medium was calculated. […] All the measured cell viability percentages were normalised against the corresponding negative controls.

[7] = test system: Caco-2; format: cell-based, human; conditions: 24 h, serum-free medium, MTT, 37 °C, 5% CO2; mean ± SD
Experimental: as §3, §4

[8] = test system: MRSA; format: cell-based, Methicillin-resistant Staphylococcus aureus (ATCC, BAA-41); conditions: 20 µl of wells without growth on agar, 18 h, 37 °C
[9] = test system: S. enterica; format: cell-based, Salmonella enterica (ATCC, 14028); conditions: 20 µl of wells without growth on agar, 18 h, 37 °C
[10] = test system: P. aeruginosa; format: cell-based, Pseudomonas aeruginosa (ATCC, 10145); conditions: micro-broth dilution, 3 h peptide treatment then MHB 18 h, 37 °C, OD 600 nm
Excerpt: as §1, §2

[11] = test system: MRSA; format: cell-based, Methicillin-resistant Staphylococcus aureus (ATCC, BAA-41); conditions: micro-broth dilution, 3 h peptide treatment then MHB 18 h, 37 °C, OD 600 nm
Excerpt: as §1, §2

[12] = crystal violet, absorbance 600 nm, mean ± SD

| Compound | MBC (µM) B. subtilis [1] | Minimal biofilm eradication concentration (MBEC) S. enterica [2] | MBC (µM) P. aeruginosa [3] | MIC (µM) C. albicans [4] | MFC (µM) C. albicans [5] | IC50 [6] | IC50 [7] | MBC (µM) MRSA [8] | MBC (µM) S. enterica [9] | MIC (µM) P. aeruginosa [10] | MIC (µM) MRSA [11] | Biofilm eradication S. enterica, 12.5 µM [2, 12] | Biofilm eradication S. enterica, 25 µM [2, 12] | Biofilm eradication S. enterica, 50 µM [2, 12] | Biofilm eradication S. enterica, 100 µM [2, 12] | Biofilm eradication S. enterica, 200 µM [2, 12] |
| --- | --- | --- | --- | --- | --- | --- | --- | --- | --- | --- | --- | --- | --- | --- | --- | --- |
| CC(C)C[C@H](NC(=O)[C@H](CCCNC(=N)N)NC(=O)[C@H](Cc1c[nH]c2ccccc12)NC(=O)[C@H](CCCNC(=N)N)NC(=O)[C@H](CC(C)C)NC(=O)[C@@H](N)Cc1ccccc1)C(=O)N[C@@H](CCCCN)C(=O)N[C@@H](Cc1ccccc1)C(=O)N[C@@H](CCCCN)C(=O)N[C@@H](CO)C(=O)N[C@@H](CCCCN)C(=O)N[C@H](C(=O)N[C@@H](Cc1c[nH]c2ccccc12)C(=O)N[C@@H](CS)C(=O)N1CCC[C@H]1C(=O)O)C(C)C [AD7] (H-FLRWRLKFKSKVWCP-OH) | 0.39 µM (≈ 0.778 µg/mL) | 100 µM | 25 µM (≈ 49.9 µg/mL) | 1.56 µM (≈ 3.11 µg/mL) | 6.25 µM (≈ 12.5 µg/mL) | 101.5 ± 0.9 µM | 11.2 ± 0.7 µM | 3.12 µM (≈ 6.22 µg/mL) | 0.78 µM (≈ 1.56 µg/mL) | 6.25 µM (≈ 12.5 µg/mL) | 3.12 µM (≈ 6.22 µg/mL) |  |  |  |  |  |
| CSCC[C@H](NC(=O)[C@H](CCCCN)NC(=O)CNC(=O)[C@H](CCCCN)NC(=O)[C@H](Cc1ccc(O)cc1)NC(=O)[C@H](CC(N)=O)NC(=O)[C@H](CC(C)C)NC(=O)[C@H](CCC(N)=O)NC(=O)[C@H](CC(C)C)NC(=O)[C@@H](N)CCCNC(=N)N)C(=O)N[C@@H](Cc1c[nH]c2ccccc12)C(=O)N[C@@H](CS)C(=O)N1CCC[C@H]1C(=O)NCC(=O)N[C@@H](Cc1c[nH]c2ccccc12)C(=O)O [AD11] (H-RLQLNYKGKMWCPGW-OH) | 0.78 µM (≈ 1.47 µg/mL) | 200 µM | > 50 µM | 25 µM (≈ 47 µg/mL) | 25 µM (≈ 47 µg/mL) | 16.8 ± 0.6 µM | 26.8 ± 0.4 µM | 12.5 µM (≈ 23.5 µg/mL) | 1.56 µM (≈ 2.93 µg/mL) | 25 µM (≈ 47 µg/mL) | 6.25 µM (≈ 11.8 µg/mL) |  |  |  |  |  |
| RHCLRSKRPPNVCPH [AD4, cationic cryptide from P. vannamei precursor DN34505 (Pl-crustin 2), chemically synthesised] | 1.56 µM |  | > 50 µM | 25 µM | 25 µM | 10.8 ± 0.3 µM | 5.4 ± 0.7 µM | 12.5 µM | 3.12 µM | > 50 µM | 6.25 µM | 6.16 ± 2.7% | 12.58 ± 1.9% | 30.41 ± 1.9% | 45.13 ± 2% | 80.63 ± 1% and 80.63% |
